Measurements reported in the supplement of paper PMC11208160.

Experiment: recombinant barcode read abundance after kanamycin selection (control-corrected) (log10(CPM+1)); higher = more efficient recombination; sequences stand for … in AGTGCAGAGAAAATCGGCCAGTTTTCTCTGCCTGCAGTCCGCATGCCGT…ATTTATGCAGCGGACTGCCTTTCTCCCAAAGTGATAAACCGGACAGTATCATGGACCGGTTTTCCCGGTAATCCGTATTTGCAAGGTTGGTTTCACT; site = the 11-nt target
Experimental: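 Same pooled E. coli target screen (IS621 bridge recombinase, kanamycin selection, control-corrected CPM, mean of 2 biological replicates). Here the two core-binding nucleotides of the LTG and RTG of the bridge RNA target-binding loop are mutated. Target and donor CT cores are held constant, and the other 9 guide positions match the target. The target is read from the library oligo sequence. Molecule = full bridge RNA written as DNA: nt 1-80 from the library oligo, rest WT scaffold.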
With “AAACAGTCTTGGGTTCTAACCTGTTGCCTAG [AAACAGTCTAG_LTGcore_CT_RTGcore_CT] (site AAACAGTCTAG) (LTG core: CT, RTG core: CT)” the “recombinant barcode read abundance (log10)” value was 2.46.
With “AAACAGTCTTGGGTTCTAACCTGTTGCCTGA [AAACAGTCTAG_LTGcore_CT_RTGcore_TC] (site AAACAGTCTAG) (LTG core: CT, RTG core: TC)” the “recombinant barcode read abundance (log10)” value was 0.883.
In the case of “AAACAGTCTTGGGTTCTAACCTGTTGCCTGG [AAACAGTCTAG_LTGcore_CT_RTGcore_CC] (site AAACAGTCTAG) (LTG core: CT, RTG core: CC)”, the “recombinant barcode read abundance (log10)” value is reported as 0.921.
In the case of “AAACAGTCTTGGGTTCTAACCTGTTGCCTTA [AAACAGTCTAG_LTGcore_CT_RTGcore_TA] (site AAACAGTCTAG) (LTG core: CT, RTG core: TA)”, the “recombinant barcode read abundance (log10)” value is reported as 1.78.
With “AAACAGTGCTGGGTTCTAACCTGTTGCCTAG [AAACAGTCTAG_LTGcore_GC_RTGcore_CT] (site AAACAGTCTAG) (LTG core: GC, RTG core: CT)” the “recombinant barcode read abundance (log10)” value was 0.16.
In the case of “AAACAGTTCTGGGTTCTAACCTGTTGCCTGA [AAACAGTCTAG_LTGcore_TC_RTGcore_TC] (site AAACAGTCTAG) (LTG core: TC, RTG core: TC)”, the “recombinant barcode read abundance (log10)” value is reported as 0.262.
For “AAACATGAATGGGTTCTAACCTGTTGCCTTT [AAACATGCTAG_LTGcore_AA_RTGcore_AA] (site AAACATGCTAG) (LTG core: AA, RTG core: AA)”, the “recombinant barcode read abundance (log10)” value was 0.133.
With “AAACATGACTGGGTTCTAACCTGTTGCCTAG [AAACATGCTAG_LTGcore_AC_RTGcore_CT] (site AAACATGCTAG) (LTG core: AC, RTG core: CT)” the “recombinant barcode read abundance (log10)” value was 0.0862.
With “AAACATGATTGGGTTCTAACCTGTTGCCTAT [AAACATGCTAG_LTGcore_AT_RTGcore_AT] (site AAACATGCTAG) (LTG core: AT, RTG core: AT)” the “recombinant barcode read abundance (log10)” value was 0.0454.
In the case of “AAACATGCATGGGTTCTAACCTGTTGCCTAG [AAACATGCTAG_LTGcore_CA_RTGcore_CT] (site AAACATGCTAG) (LTG core: CA, RTG core: CT)”, the “recombinant barcode read abundance (log10)” value is reported as 0.141.
With “AAACATGCATGGGTTCTAACCTGTTGCCTTG [AAACATGCTAG_LTGcore_CA_RTGcore_CA] (site AAACATGCTAG) (LTG core: CA, RTG core: CA)” the “recombinant barcode read abundance (log10)” value was 0.0197.
With “AAACATGCTTGGGTTCTAACCTGTTGCCTAG [AAACATGCTAG_LTGcore_CT_RTGcore_CT] (site AAACATGCTAG) (LTG core: CT, RTG core: CT)” the “recombinant barcode read abundance (log10)” value was 1.43.
With “AAACATGCTTGGGTTCTAACCTGTTGCCTGA [AAACATGCTAG_LTGcore_CT_RTGcore_TC] (site AAACATGCTAG) (LTG core: CT, RTG core: TC)” the “recombinant barcode read abundance (log10)” value was 1.4.
With “AAACATGGCTGGGTTCTAACCTGTTGCCTAG [AAACATGCTAG_LTGcore_GC_RTGcore_CT] (site AAACATGCTAG) (LTG core: GC, RTG core: CT)” the “recombinant barcode read abundance (log10)” value was 0.349.
With “AAACATGGCTGGGTTCTAACCTGTTGCCTGC [AAACATGCTAG_LTGcore_GC_RTGcore_GC] (site AAACATGCTAG) (LTG core: GC, RTG core: GC)” the “recombinant barcode read abundance (log10)” value was 0.233.
With “AAACATGTGTGGGTTCTAACCTGTTGCCTAG [AAACATGCTAG_LTGcore_TG_RTGcore_CT] (site AAACATGCTAG) (LTG core: TG, RTG core: CT)” the “recombinant barcode read abundance (log10)” value was 0.0752.
With “AAACATGTTTGGGTTCTAACCTGTTGCCTAA [AAACATGCTAG_LTGcore_TT_RTGcore_TT] (site AAACATGCTAG) (LTG core: TT, RTG core: TT)” the “recombinant barcode read abundance (log10)” value was 0.632.
With “ACGGGACAGTGGGTTCTAACCTGTTGCAGAG [ACGGGACCTCT_LTGcore_AG_RTGcore_CT] (site ACGGGACCTCT) (LTG core: AG, RTG core: CT)” the “recombinant barcode read abundance (log10)” value was 0.111.
In the case of “ACGGGACCATGGGTTCTAACCTGTTGCAGAG [ACGGGACCTCT_LTGcore_CA_RTGcore_CT] (site ACGGGACCTCT) (LTG core: CA, RTG core: CT)”, the “recombinant barcode read abundance (log10)” value is reported as 2.09.
In the case of “ACGGGACCATGGGTTCTAACCTGTTGCAGTG [ACGGGACCTCT_LTGcore_CA_RTGcore_CA] (site ACGGGACCTCT) (LTG core: CA, RTG core: CA)”, the “recombinant barcode read abundance (log10)” value is reported as 0.127.
With “ACGGGACCCTGGGTTCTAACCTGTTGCAGAG [ACGGGACCTCT_LTGcore_CC_RTGcore_CT] (site ACGGGACCTCT) (LTG core: CC, RTG core: CT)” the “recombinant barcode read abundance (log10)” value was 2.22.
In the case of “ACGGGACCTTGGGTTCTAACCTGTTGCAGTT [ACGGGACCTCT_LTGcore_CT_RTGcore_AA] (site ACGGGACCTCT) (LTG core: CT, RTG core: AA)”, the “recombinant barcode read abundance (log10)” value is reported as 0.29.
In the case of “ACGGGACGCTGGGTTCTAACCTGTTGCAGGC [ACGGGACCTCT_LTGcore_GC_RTGcore_GC] (site ACGGGACCTCT) (LTG core: GC, RTG core: GC)”, the “recombinant barcode read abundance (log10)” value is reported as 0.151.
With “ACGGGACGTTGGGTTCTAACCTGTTGCAGAC [ACGGGACCTCT_LTGcore_GT_RTGcore_GT] (site ACGGGACCTCT) (LTG core: GT, RTG core: GT)” the “recombinant barcode read abundance (log10)” value was 0.0225.
For “ACGGGACTCTGGGTTCTAACCTGTTGCAGAG [ACGGGACCTCT_LTGcore_TC_RTGcore_CT] (site ACGGGACCTCT) (LTG core: TC, RTG core: CT)”, the “recombinant barcode read abundance (log10)” value was 0.0751.
In the case of “AGGAGGTCTTGGGTTCTAACCTGTTGCCTTT [AGGAGGTCTAG_LTGcore_CT_RTGcore_AA] (site AGGAGGTCTAG) (LTG core: CT, RTG core: AA)”, the “recombinant barcode read abundance (log10)” value is reported as 1.32.
With “AGGAGGTGGTGGGTTCTAACCTGTTGCCTAG [AGGAGGTCTAG_LTGcore_GG_RTGcore_CT] (site AGGAGGTCTAG) (LTG core: GG, RTG core: CT)” the “recombinant barcode read abundance (log10)” value was 0.165.
With “AGGAGGTGTTGGGTTCTAACCTGTTGCCTAG [AGGAGGTCTAG_LTGcore_GT_RTGcore_CT] (site AGGAGGTCTAG) (LTG core: GT, RTG core: CT)” the “recombinant barcode read abundance (log10)” value was 0.
With “AGGCCTCAATGGGTTCTAACCTGTTGCCTAG [AGGCCTCCTAG_LTGcore_AA_RTGcore_CT] (site AGGCCTCCTAG) (LTG core: AA, RTG core: CT)” the “recombinant barcode read abundance (log10)” value was 0.0132.
In the case of “AGGCCTCCATGGGTTCTAACCTGTTGCCTTG [AGGCCTCCTAG_LTGcore_CA_RTGcore_CA] (site AGGCCTCCTAG) (LTG core: CA, RTG core: CA)”, the “recombinant barcode read abundance (log10)” value is reported as 0.128.
For “AGGCCTCCTTGGGTTCTAACCTGTTGCCTAT [AGGCCTCCTAG_LTGcore_CT_RTGcore_AT] (site AGGCCTCCTAG) (LTG core: CT, RTG core: AT)”, the “recombinant barcode read abundance (log10)” value was 0.576.
For “AGGCCTCCTTGGGTTCTAACCTGTTGCCTCT [AGGCCTCCTAG_LTGcore_CT_RTGcore_AG] (site AGGCCTCCTAG) (LTG core: CT, RTG core: AG)”, the “recombinant barcode read abundance (log10)” value was 0.369.
For “AGGCCTCCTTGGGTTCTAACCTGTTGCCTTC [AGGCCTCCTAG_LTGcore_CT_RTGcore_GA] (site AGGCCTCCTAG) (LTG core: CT, RTG core: GA)”, the “recombinant barcode read abundance (log10)” value was 0.109.
For “AGGCCTCGCTGGGTTCTAACCTGTTGCCTGC [AGGCCTCCTAG_LTGcore_GC_RTGcore_GC] (site AGGCCTCCTAG) (LTG core: GC, RTG core: GC)”, the “recombinant barcode read abundance (log10)” value was 0.137.
For “AGGCCTCTATGGGTTCTAACCTGTTGCCTAG [AGGCCTCCTAG_LTGcore_TA_RTGcore_CT] (site AGGCCTCCTAG) (LTG core: TA, RTG core: CT)”, the “recombinant barcode read abundance (log10)” value was 0.0484.
For “AGGCCTCTCTGGGTTCTAACCTGTTGCCTAG [AGGCCTCCTAG_LTGcore_TC_RTGcore_CT] (site AGGCCTCCTAG) (LTG core: TC, RTG core: CT)”, the “recombinant barcode read abundance (log10)” value was 0.137.
For “AGGCGGGACTGGGTTCTAACCTGTTGCGGAG [AGGCGGGCTCC_LTGcore_AC_RTGcore_CT] (site AGGCGGGCTCC) (LTG core: AC, RTG core: CT)”, the “recombinant barcode read abundance (log10)” value was 0.555.
With “AGGCGGGACTGGGTTCTAACCTGTTGCGGGT [AGGCGGGCTCC_LTGcore_AC_RTGcore_AC] (site AGGCGGGCTCC) (LTG core: AC, RTG core: AC)” the “recombinant barcode read abundance (log10)” value was 0.011.
For “AGGCGGGCCTGGGTTCTAACCTGTTGCGGGG [AGGCGGGCTCC_LTGcore_CC_RTGcore_CC] (site AGGCGGGCTCC) (LTG core: CC, RTG core: CC)”, the “recombinant barcode read abundance (log10)” value was 0.126.
With “AGGCGGGCTTGGGTTCTAACCTGTTGCGGAC [AGGCGGGCTCC_LTGcore_CT_RTGcore_GT] (site AGGCGGGCTCC) (LTG core: CT, RTG core: GT)” the “recombinant barcode read abundance (log10)” value was 0.13.
In the case of “AGGCGGGCTTGGGTTCTAACCTGTTGCGGAT [AGGCGGGCTCC_LTGcore_CT_RTGcore_AT] (site AGGCGGGCTCC) (LTG core: CT, RTG core: AT)”, the “recombinant barcode read abundance (log10)” value is reported as 0.513.
With “AGGCGGGCTTGGGTTCTAACCTGTTGCGGCG [AGGCGGGCTCC_LTGcore_CT_RTGcore_CG] (site AGGCGGGCTCC) (LTG core: CT, RTG core: CG)” the “recombinant barcode read abundance (log10)” value was 0.146.
In the case of “AGGCGGGCTTGGGTTCTAACCTGTTGCGGGA [AGGCGGGCTCC_LTGcore_CT_RTGcore_TC] (site AGGCGGGCTCC) (LTG core: CT, RTG core: TC)”, the “recombinant barcode read abundance (log10)” value is reported as 0.253.
With “AGGCGGGCTTGGGTTCTAACCTGTTGCGGTC [AGGCGGGCTCC_LTGcore_CT_RTGcore_GA] (site AGGCGGGCTCC) (LTG core: CT, RTG core: GA)” the “recombinant barcode read abundance (log10)” value was 0.246.
